pEC50: −log10 of the molar value.
How the values were obtained:
Assay type in all cases: cell-based
[1] = test system: U138 glioblastoma cell line; assay: In-vitro cell survival assay (Alamar blue), U138; settings: U138, one day after compound addition
Procedure: (§1) Five tumor-derived cell lines were treated with the ROS inhibitor compounds and cell survival was monitored to determine the cancer prohibition effects of the compounds. The cell lines included HeLa, a cervical cancer cell line, and four glioblastoma cell lines U138, U87, LN18, and U118. The basic protocol for the in-vitro cell survival assay is the same for all five cell lines. In particular, the cells were seeded in 96-well plates at 2-5×10^3 cells/well (cell line dependent) in culture medium. The cells were grown for 2 days before the compounds were dissolved in DMSO and added to final concentrations of 100 uM, 10 uM, or 1 uM (DMSO final concentration 0.5%). The cell culture was then assayed one day after the addition of the compounds. The assay used Alamar blue as a redox-sensitive dye that interrogates mitochondrial fitness of cells, and these assays provided a readout for cell proliferation and viability. The raw values were normalized to an average of several vehicle control wells and are presented as percent decrease in proliferation/viability, which is converted to half maximal effective concentration (EC50) values.

[2] = test system: HeLa cervical cancer cell line; assay: In-vitro cell survival assay (Alamar blue), HeLa; settings: one day after compound addition
Procedure: as §1

[3] = test system: U87 glioblastoma cell line; assay: In-vitro cell survival assay (Alamar blue), U87; settings: U87, one day after compound addition
Procedure: as §1

[4] = test system: LN18 glioblastoma cell line; assay: In-vitro cell survival assay (Alamar blue), LN18; settings: LN18, one day after compound addition
Procedure: as §1

[5] = test system: U118 glioblastoma cell line; assay: In-vitro cell survival assay (Alamar blue), U118; settings: U118, one day after compound addition
Procedure: as §1

Structure (SMILES)	pEC50 ([1]; 24 h)	pEC50 ([2]; Homo sapiens, 24 h)	pEC50 ([3]; 24 h)	pEC50 ([4]; Homo sapiens, LN-18, 24 h)	pEC50 ([5]; 24 h)	pEC50 [1]	pEC50 [2]	pEC50 [3]	pEC50 [4]	pEC50 [5]
O=C(NCCc1ccccc1)c1cccc(Nc2nccc(Nc3ccc4ncsc4c3)n2)c1 [drawing 418]	4.42	4.82	4.89	4.96	4.62					
Cc1cccc(Nc2nccc(Nc3cccc(C(=O)Nc4ccc(F)cc4)c3)n2)c1 [drawing 382]	4.12	4.85	4.57	5.22	4.52					
Cc1ccc(CNC(=O)c2cccc(Nc3nccc(Nc4ccc5ncsc5c4)n3)c2)o1 [drawing 419]	4.72	5.00	4.80	5.15	4.77					
Cc1cccc(C(=O)n2nc(-c3ccco3)nc2NCc2ccccc2)c1 [drawing 431]	< 4.00	< 4.00	< 4.00	< 4.00	< 4.00					
CC(C)(C)c1cc(C(=O)NNc2cccc(Cl)c2)n(Cc2ccccc2)n1 [drawing 389]	< 4.00	< 4.00	4.30	< 4.00	< 4.00					
Cc1cccc(Nc2nccc(Nc3cccc(C(=O)NCCN4CCOCC4)c3)n2)c1 [drawing 381]	4.27	4.37	4.44	4.96	4.77					
Cc1cccc(Nc2nccc(Nc3cccc(C(=O)N(C)CCCN(C)C)c3)n2)c1 [drawing 425]	< 4.00	4.41	4.34	4.05	< 4.00					
CCOC(Nc1cc(-c2sccc2-n2c(C)ccc2C)[nH]n1)OCC [drawing 364]						< 4.00	< 4.00	4.59	< 4.00	< 4.00
COc1cccc(Nc2cc(Nc3cccc(C(=O)N4CCN(C(C)=O)CC4)c3)nc(N)n2)c1 [drawing 377]	< 4.00	< 4.00	< 4.00	4.19	4.04					
Cc1ccc(NC(=O)CCn2ccc3ccccc32)cc1 [drawing 472]	< 4.00	< 4.00			< 4.00					
C[C@@H](Oc1cc(-c2cnn(C3CCNCC3)c2)cnc1N)c1c(Cl)ccc(F)c1Cl [drawing 491]	4.93	4.82	4.92	4.70	4.89					
Cc1cc(C)n(-c2cccc(C(=O)NC[C@H]3Cc4cc(Cl)cc(-c5cnccn5)c4O3)c2)n1	< 4.00	4.15	4.03	4.19	4.02					
O=C1c2ccccc2C(=O)N1C[C@H](O)Cn1nc(-c2cccs2)c2ccccc2c1=O [drawing 405]	< 4.00	< 4.00	< 4.00	< 4.00	< 4.00					
FC(F)(F)c1cc(-n2c(Cc3cccc4ccccc34)n[nH]c2=S)cc(C(F)(F)F)c1 [drawing 397]						< 4.00	4.21	4.70	< 4.00	< 4.00
Cc1cc(C)c(NC(=O)c2cc3ccccc3c(=O)s2)c(-c2cc(C)[nH]n2)c1 [drawing 400]						< 4.00	< 4.00	< 4.00	< 4.00	< 4.00
O=C(NCCN1CCOCC1)c1cccc(Nc2nccc(Nc3ccc4ncsc4c3)n2)c1 [drawing 411]	< 4.00	4.72	4.74	< 4.00	< 4.00					
Nc1nc(Nc2ccc(C(=O)N3CCC[C@H]4CCCC[C@H]43)cc2)cc(Nc2ccc3ncsc3c2)n1	< 4.00	4.24	4.52	4.85	< 4.00					
COc1ccc(NC(=O)CC2=Nc3cccc4cccc(c34)NC2=O)cc1 [drawing 482]	< 4.00	4.77			< 4.00					
Nc1nc(Nc2ccc(C(=O)NCc3ccco3)cc2)cc(Nc2ccc3ncsc3c2)n1 [drawing 375]	< 4.00	4.36	4.49	4.74	4.57					
O=C1NN=C(c2ccccc2)/C1=C1\OC(c2ccccc2)=CS1 [drawing 392]	< 4.00	4.64	4.43	4.77	4.57					
NC(Cc1ccccc1)C(=O)n1ccc2cccnc21 (centres unmarked) [drawing 479]	< 4.00	4.35			< 4.00					
O=C(c1ccccc1)n1nc(-c2ccco2)nc1NCc1ccc(Cl)cc1 [drawing 432]	< 4.00	< 4.00	< 4.00	< 4.00	< 4.00					
O=C(NCc1cccs1)c1cccc(Nc2nccc(Nc3ccc4ncsc4c3)n2)c1 [drawing 410]	4.59	5.05	4.60	4.96	4.64					

Structure (SMILES)	pEC50 ([1]; 24 h)	pEC50 ([2]; Homo sapiens, 24 h)	pEC50 ([3]; 24 h)	pEC50 ([4]; Homo sapiens, LN-18, 24 h)	pEC50 ([5]; 24 h)	pEC50 [1]	pEC50 [2]	pEC50 [3]	pEC50 [4]	pEC50 [5]
O=c1cc(Oc2ccccc2)c(-c2nc[nH]n2)nn1-c1ccccc1 [drawing 365]						< 4.00	< 4.00	4.59	< 4.00	< 4.00
O=C(CCn1ccc2ccccc21)Nc1ccc(F)cc1 [drawing 475]	< 4.00	< 4.00			< 4.00					
Cc1cccc(Nc2nccc(Nc3cccc(C(=O)NCc4ccccc4F)c3)n2)c1 [drawing 412]	4.47	5.05	4.96	5.22	4.80					
CCc1cc(Br)ccc1NC(=O)CCn1ccc2ccccc21 [drawing 478]	< 4.00	4.37			< 4.00					
CCOC(=O)c1ccc(NC(=O)CCn2ccc3ccccc32)cc1 [drawing 473]	< 4.00	< 4.00			< 4.00					
Cc1cc(-c2ccccc2)c2ccc(N)nc2n1 [drawing 480]	4.34	4.24			< 4.00					
Nc1cccc2cccc(N=C(CC(=O)O)C(=O)O)c12 [drawing 481]	< 4.00	4.20			< 4.00					
COc1ccc(C(F)(F)F)cc1NC(=O)CCn1ccc2ccccc21 [drawing 476]	4.01	< 4.00			4.33					
O=C(CC1=Nc2cccc3cccc(c23)NC1=O)NCc1cccc(I)c1 [drawing 483]	< 4.00	5.00			4.29					
O=C(CCn1ccc2ccccc21)Nc1cnccn1 [drawing 477]	4.04	4.19			4.48					
CC(C)c1nc(Nc2ccc(N)cc2)nc(Nc2cc(C3CC3)[nH]n2)n1 [drawing 461]	5.10	4.85	4.46	4.40						
O=C(NCC1CCNCC1)c1ccc(Nc2ncc(Cl)c(Nc3ccc4ncsc4c3)n2)cc1 [drawing 468]	< 4.00	< 4.00	< 4.00	< 4.00						
COc1ccc(NC(=O)CCn2ccc3ccccc32)cc1 [drawing 474]	< 4.00	4.52			< 4.00					
NC1CCN(C(=O)c2ccc(Nc3ncc(Cl)c(Nc4ccc5ncsc5c4)n3)cc2)CC1 [drawing 464]	4.22	4.52	4.40	4.40						
Brc1cccc(Nc2nccc(Nc3ccc4ncsc4c3)n2)c1 [drawing 442]	< 4.00	< 4.00	< 4.00	< 4.00						
NCC1CCN(C(=O)c2ccc(Nc3ncc(Cl)c(Nc4ccc5ncsc5c4)n3)cc2)CC1 [drawing 463]	4.10	4.15	< 4.00	4.00						
CN1CCN(C(=O)c2cccc(Nc3ncc(Cl)c(Nc4ccc5ncsc5c4)n3)c2)CC1 [drawing 466]	4.82	5.70	4.62	4.82						
CC(C)c1nc(Nc2ccc(C(=O)NCc3ccccc3)cc2)nc(Nc2cccc(Cc3nc4ccccc4s3)c2)n1 [drawing 453]	< 4.00	< 4.00	< 4.00	< 4.00						
CC(C)c1nc(Nc2ccc(C(=O)N3CCN(C)CC3)cc2)nc(Nc2ccc3ncsc3c2)n1 [drawing 458]	4.55	4.52	4.46	4.40						
O=C(NCC1CCNCC1)c1cccc(Nc2ncc(Cl)c(Nc3ccc4ncsc4c3)n2)c1 [drawing 471]	4.10	4.52	4.10	4.52						
NCC1CCN(C(=O)c2cccc(Nc3ncc(Cl)c(Nc4ccc5ncsc5c4)n3)c2)CC1 [drawing 470]	4.70	5.52	4.74	4.72						
CC(C)c1nc(Nc2ccc(C(=O)N3CCCCC3)cc2)nc(Nc2ccc3ncsc3c2)n1 [drawing 455]	4.74	4.52	4.40	4.52						
O=C(c1ccc(Nc2ncc(Cl)c(Nc3ccc4ncsc4c3)n2)cc1)N1CCCCC1 [drawing 443]	< 4.00	< 4.00	< 4.00	< 4.00						
